# Laboratory results: PubChem BioAssay (NCI)
#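 In this assay, cells in 96-well plates receive the compound at five concentrations for 48 hours. Endpoints are linearly interpolated between the surrounding concentrations. The concentration for full growth arrest is given as TGI.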
# Columns and labels:
# Test in all cases: NCI-60 cell line screen, 48 h
# [1] = tested on: SNB-19 CNS
# [2] = tested on: RXF 393 renal
# [3] = tested on: SW-620 colon
# [4] = tested on: UO-31 renal
# [5] = tested on: M14 melanoma
# [6] = tested on: HCC-2998 colon
# [7] = tested on: UACC-62 melanoma
# [8] = tested on: SF-295 CNS
# [9] = tested on: DU-145 prostate
# [10] = tested on: HCT-15 colon
# [11] = tested on: HT29 colon
# [12] = tested on: CCRF-CEM leukemia
# [13] = tested on: KM12 colon
# [14] = tested on: A549 NSCLC
# [15] = tested on: SK-MEL-2 melanoma
# [16] = tested on: HS 578T breast
# [17] = tested on: NCI-H23 lung
# [18] = tested on: T-47D breast
# [19] = tested on: SK-MEL-28 melanoma
# [20] = tested on: LOX IMVI melanoma
# [21] = tested on: CAKI-1 renal
# [22] = tested on: HOP-62 NSCLC
# [23] = tested on: EKVX NSCLC
# [24] = tested on: NCI/ADR-RES ovarian
# [25] = tested on: SR leukemia
# [26] = tested on: PC-3 prostate
# [27] = tested on: SK-OV-3 ovarian
# [28] = tested on: COLO 205 colon
# [29] = tested on: SF-268 CNS
# [30] = tested on: NCI-H226 lung
# [31] = tested on: OVCAR-8 ovarian
# [32] = tested on: ACHN renal
# [33] = tested on: K-562 leukemia
# [34] = tested on: 786-0 renal
# [35] = tested on: MALME-3M melanoma
# [36] = tested on: OVCAR-3 ovarian
# [37] = tested on: NCI-H522 lung
# [38] = tested on: IGROV1 ovarian
# [39] = tested on: HL-60(TB) leukemia
# [40] = tested on: HOP-92 NSCLC
# [41] = tested on: MDA-N
# [42] = tested on: MCF7 breast
# [43] = tested on: MDA-MB-435
# [44] = tested on: TK-10 renal
# [45] = tested on: NCI-H460 lung
# [46] = tested on: UACC-257 melanoma
# [47] = tested on: MDA-MB-231 breast
# [48] = tested on: A498 renal
# [49] = tested on: SN12C renal
# [50] = tested on: OVCAR-4 ovarian
# [51] = tested on: U251 CNS
# [52] = tested on: HCT-116 colon
# [53] = tested on: SNB-75 CNS
# [54] = tested on: RPMI-8226 leukemia
# [55] = tested on: MOLT-4 leukemia
# [56] = tested on: SK-MEL-5 melanoma
# [57] = tested on: BT-549 breast
# [58] = tested on: SF-539 CNS
# [59] = tested on: OVCAR-5 ovarian
structure (smiles),measurement,setting,value
CC(=O)Oc1ccc2c(c1)c1c(=O)oc(C)nc1n2Cc1ccccc1,TGI,[1],> 100 µM
same,TGI,[2],68.5 µM
same,TGI,[3],> 100 µM
same,TGI,[4],13.8 µM
same,TGI,[5],> 100 µM
same,TGI,[6],> 100 µM
same,TGI,[7],> 31.6 µM
same,TGI,[8],> 100 µM
same,TGI,[9],> 100 µM
same,TGI,[10],> 100 µM
same,TGI,[11],> 100 µM
same,TGI,[12],> 100 µM
same,TGI,[13],> 100 µM
same,TGI,[14],> 100 µM
same,TGI,[15],> 71.6 µM
same,TGI,[16],> 100 µM
same,TGI,[17],> 100 µM
same,TGI,[18],> 100 µM
same,TGI,[19],> 100 µM
same,TGI,[20],> 100 µM
same,TGI,[21],34.4 µM
same,TGI,[22],> 100 µM
same,TGI,[23],> 100 µM
same,TGI,[24],> 100 µM
same,TGI,[25],> 100 µM
same,TGI,[26],> 100 µM
same,TGI,[27],98.6 µM
same,TGI,[28],> 100 µM
same,TGI,[29],> 100 µM
same,TGI,[30],> 69.7 µM
same,TGI,[31],> 100 µM
same,TGI,[32],> 100 µM
same,TGI,[33],> 100 µM
same,TGI,[34],> 100 µM
same,TGI,[35],> 100 µM
same,TGI,[36],> 100 µM
same,TGI,[37],60.5 µM
same,TGI,[38],> 100 µM
same,TGI,[39],> 100 µM
same,TGI,[40],> 100 µM
same,TGI,[41],> 88.1 µM
same,TGI,[42],> 100 µM
same,TGI,[43],99.4 µM
same,TGI,[44],> 91.2 µM
same,TGI,[45],> 100 µM
same,TGI,[46],> 100 µM
same,TGI,[47],> 100 µM
same,TGI,[48],> 74.6 µM
same,TGI,[49],> 100 µM
same,TGI,[50],> 100 µM
same,TGI,[51],> 100 µM
same,TGI,[52],> 100 µM
same,TGI,[53],> 87.7 µM
same,TGI,[54],> 100 µM
same,TGI,[55],> 100 µM
same,TGI,[56],> 100 µM
same,TGI,[57],> 66.3 µM
same,TGI,[58],> 100 µM
same,TGI,[59],> 100 µM
S=C1SSC2N=CC=CC12 (stereo not given),TGI,[1],> 100 µM
same,TGI,[2],> 100 µM
same,TGI,[3],> 100 µM
same,TGI,[4],> 100 µM
same,TGI,[5],> 100 µM
same,TGI,[6],61.4 µM
same,TGI,[7],> 100 µM
same,TGI,[8],> 100 µM
same,TGI,[9],> 100 µM
same,TGI,[10],> 100 µM
same,TGI,[11],> 100 µM
same,TGI,[12],71.1 µM
same,TGI,[13],33 µM
same,TGI,[14],> 100 µM
same,TGI,[15],> 100 µM
same,TGI,[16],> 100 µM
same,TGI,[17],> 100 µM
same,TGI,[18],> 100 µM
same,TGI,[19],> 100 µM
same,TGI,[20],> 100 µM
same,TGI,[21],34.3 µM
same,TGI,[23],> 100 µM
same,TGI,[24],> 100 µM
same,TGI,[25],> 100 µM
same,TGI,[26],> 100 µM
same,TGI,[27],> 100 µM
same,TGI,[28],> 100 µM
same,TGI,[29],> 100 µM
same,TGI,[30],> 100 µM
same,TGI,[31],> 100 µM
same,TGI,[32],> 100 µM
same,TGI,[33],> 100 µM
same,TGI,[34],> 100 µM
same,TGI,[35],> 100 µM
same,TGI,[36],> 100 µM
same,TGI,[37],> 100 µM
same,TGI,[38],> 100 µM
same,TGI,[39],> 100 µM
same,TGI,[40],> 100 µM
same,TGI,[41],> 100 µM
same,TGI,[42],> 100 µM
same,TGI,[43],31.8 µM
same,TGI,[44],> 100 µM
same,TGI,[45],> 100 µM
same,TGI,[46],> 100 µM
same,TGI,[47],> 100 µM
same,TGI,[48],> 100 µM
same,TGI,[49],> 100 µM
same,TGI,[50],34.2 µM
same,TGI,[51],> 100 µM
same,TGI,[52],> 100 µM
same,TGI,[53],> 100 µM
same,TGI,[54],> 100 µM
same,TGI,[55],> 100 µM
same,TGI,[56],> 100 µM
same,TGI,[57],> 100 µM
same,TGI,[58],> 100 µM
same,TGI,[59],> 100 µM
CCn1sc2ccccc2c1=O,TGI,[1],32.9 µM
same,TGI,[2],11.7 µM
same,TGI,[3],> 58.4 µM
same,TGI,[5],12 µM
same,TGI,[6],34 µM
same,TGI,[7],29.5 µM
same,TGI,[8],> 55.1 µM
same,TGI,[9],49.6 µM
same,TGI,[10],27.5 µM
same,TGI,[11],34 µM
same,TGI,[12],> 48.2 µM
same,TGI,[13],18.8 µM
same,TGI,[14],40.4 µM
same,TGI,[15],53.9 µM
same,TGI,[16],32.4 µM
same,TGI,[17],34.7 µM
same,TGI,[18],35.2 µM
same,TGI,[19],36 µM
same,TGI,[20],7.73 µM
same,TGI,[21],11.4 µM
same,TGI,[22],34.3 µM
same,TGI,[23],38.2 µM
same,TGI,[24],69.3 µM
same,TGI,[25],> 100 µM
same,TGI,[26],29.3 µM
same,TGI,[27],> 54.9 µM
same,TGI,[28],29.3 µM
same,TGI,[29],34.6 µM
same,TGI,[30],50.7 µM
same,TGI,[31],35.8 µM
same,TGI,[32],20.5 µM
same,TGI,[33],> 100 µM
same,TGI,[34],6.87 µM
same,TGI,[35],39.6 µM
same,TGI,[36],29.7 µM
same,TGI,[37],5.32 µM
same,TGI,[38],19.6 µM
same,TGI,[39],13 µM
same,TGI,[40],22.5 µM
same,TGI,[41],8.99 µM
same,TGI,[42],26.8 µM
same,TGI,[43],5.82 µM
same,TGI,[44],30.9 µM
same,TGI,[45],> 100 µM
same,TGI,[46],32.7 µM
same,TGI,[47],27.2 µM
same,TGI,[48],> 60 µM
same,TGI,[49],22.7 µM
same,TGI,[50],89.8 µM
same,TGI,[51],16.1 µM
same,TGI,[52],30.7 µM
same,TGI,[53],26.6 µM
same,TGI,[54],> 100 µM
same,TGI,[55],> 100 µM
same,TGI,[56],25 µM
same,TGI,[57],25.7 µM
same,TGI,[58],30.8 µM
same,TGI,[59],> 27.5 µM
